Experimental data: the supplement of paper PMC10307832

What was measured:
Assay in all cases: relative viability (nuclei count vs DMSO), 5 days (fraction); higher = more cells survive
Nelarabine + Luminespib = compound: COc1nc(N)nc2c1ncn2[C@@H]1O[C@H](CO)[C@@H](O)[C@@H]1O [Nelarabine] + CCNC(=O)c1noc(-c2cc(C(C)C)c(O)cc2O)c1-c1ccc(CN2CCOCC2)cc1 [Luminespib] (partner 0.01 µM)
Summary of the method: (§1)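 Relative viability is defined as nuclei in treated wells over nuclei in vehicle wells. Duplicate plates were run and medians reported. Lung cancer cell lines in 1536-well plates were dosed by pin tool one day after seeding, with one drug or with a fixed anchor-drug dose plus five library-drug doses (not always all listed) in √10 steps, and nuclei were counted after 5 days.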

Nelarabine + Navitoclax = compound: COc1nc(N)nc2c1ncn2[C@@H]1O[C@H](CO)[C@@H](O)[C@@H]1O [Nelarabine] + CC1(C)CCC(c2ccc(Cl)cc2)=C(CN2CCN(c3ccc(C(=O)NS(=O)(=O)c4ccc(N[C@H](CCN5CCOCC5)CSc5ccccc5)c(S(=O)(=O)C(F)(F)F)c4)cc3)CC2)C1 [Navitoclax] (partner 0.5 µM)
Summary of the method: as §1

Nelarabine + Crizotinib = compound: COc1nc(N)nc2c1ncn2[C@@H]1O[C@H](CO)[C@@H](O)[C@@H]1O [Nelarabine] + C[C@@H](Oc1cc(-c2cnn(C3CCNCC3)c2)cnc1N)c1c(Cl)ccc(F)c1Cl [Crizotinib] (partner 1 µM)
Summary of the method: as §1

Nelarabine + Lapatinib = compound: COc1nc(N)nc2c1ncn2[C@@H]1O[C@H](CO)[C@@H](O)[C@@H]1O [Nelarabine] + CS(=O)(=O)CCNCc1ccc(-c2ccc3ncnc(Nc4ccc(OCc5cccc(F)c5)c(Cl)c4)c3c2)o1 [Lapatinib] (partner 2 µM)
Summary of the method: as §1

## EMC-BAC-2
Nelarabine + Luminespib; first compound 0.01 µM
  relative viability: 1.41
Nelarabine + Luminespib; first compound 0.03162 µM
  relative viability: 1.16
Nelarabine + Luminespib; first compound 0.1 µM
  relative viability: 1.11
Nelarabine + Luminespib; first compound 0.3162 µM
  relative viability: 1.22
Nelarabine + Luminespib; first compound 1 µM
  relative viability: 1.28
Nelarabine + Navitoclax; first compound 0.01 µM
  relative viability: 1.45
Nelarabine + Navitoclax; first compound 0.03162 µM
  relative viability: 1.11
Nelarabine + Navitoclax; first compound 0.1 µM
  relative viability: 1.25
Nelarabine + Navitoclax; first compound 0.3162 µM
  relative viability: 1.38
Nelarabine + Navitoclax; first compound 1 µM
  relative viability: 1.16
Nelarabine + Crizotinib; first compound 0.01 µM
  relative viability: 0.734
Nelarabine + Crizotinib; first compound 0.03162 µM
  relative viability: 0.624
Nelarabine + Crizotinib; first compound 0.1 µM
  relative viability: 0.782
Nelarabine + Crizotinib; first compound 0.3162 µM
  relative viability: 0.843
Nelarabine + Crizotinib; first compound 1 µM
  relative viability: 0.683
Nelarabine + Lapatinib; first compound 0.01 µM
  relative viability: 1.05
Nelarabine + Lapatinib; first compound 0.03162 µM
  relative viability: 0.909
Nelarabine + Lapatinib; first compound 0.1 µM
  relative viability: 0.883
Nelarabine + Lapatinib; first compound 0.3162 µM
  relative viability: 0.962
Nelarabine + Lapatinib; first compound 1 µM
  relative viability: 0.885
